From paper doi:10.1101/2022.01.05.475007v1 (biorxiv, 2022) come the findings set out here.

Molecules are shown by their SMILES.

In assay [1] the target is T1, Sirt3 (hSirt3 118-399) (Homo sapiens, UniProt Q9NTG7).
T1 sequence (Q9NTG7 118-399): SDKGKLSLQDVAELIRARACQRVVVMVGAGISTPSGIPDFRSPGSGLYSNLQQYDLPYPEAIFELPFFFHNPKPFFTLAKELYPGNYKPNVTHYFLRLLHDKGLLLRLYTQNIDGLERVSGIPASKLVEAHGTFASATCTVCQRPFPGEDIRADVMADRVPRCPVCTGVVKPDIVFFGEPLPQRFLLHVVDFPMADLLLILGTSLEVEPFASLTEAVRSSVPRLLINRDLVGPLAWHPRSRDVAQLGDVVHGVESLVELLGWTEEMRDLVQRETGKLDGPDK
As to the kind of experiment: switchSENSE kinetics. The format is binding. The settings on record: absence of cofactors; HDAC buffer, 5% DMSO, 25 °C.

For assay [2], the target named is T1, Sirt3 (hSirt3 118-399). Put plainly: fluorescence deacetylation assay. As to conditions: read-out: % control at 10 μM. The class given is biochemical.

`CCCCNC(=O)COc1ccc2c(c1)CCc1ccccc1C2NC(=O)CCCOc1cc([N+](=O)[O-])c(C(C)O)cc1OC` (centres unmarked) [AA8AC40]: at Sirt3 (hSirt3 118-399) [1], the Kd was 4.56 ± 3.5 µM.
Consider `CCCCNC(=O)COc1ccc2c(c1)CCc1ccccc1C2NC(=O)CSC(=S)c1ccccc1` (centres unmarked) [AA8AC71], for which, on Sirt3 (hSirt3 118-399) [2], the remaining activity at 10 µM was determined as 72.4%.
On the same count and under the same terms, as for `C=C(CC)C(=O)c1ccc(OCC(=O)NC2c3ccccc3CCc3cc(OCC(=O)NCCCC)ccc32)c(Cl)c1Cl` (centres unmarked) [AA8AC92], the figure is 75.7%; as for `CCCCNC(=O)[C@@H](Cc1ccc(Cl)cc1)NC(=O)CSC(=S)c1ccccc1` [AA12AC71], 76.5%.
Still for that read-out and setting: as for `C=C(CC)C(=O)c1ccc(OCC(=O)N[C@H](Cc2ccc(Cl)cc2)C(=O)NCCCC)c(Cl)c1Cl` [AA12AC92], the figure is 83.1%.
